Earlier results on one compound are cited in patent US10123974B2, “Sustained release formulation of a non-steroidal anti-inflammatory drug” (PACIRA PHARMACEUTICALS, INC., priority 2010, dated 2018).

A value given as a limit tells only on which side of the number the result lay.

For this series the following is noted: chronic 100 mg/day systemic dosing.

With `O=C(O)Cc1ccccc1Nc1c(Cl)cccc1Cl` [diclofenac], the synovial fluid levels is listed as at most 200 ng/mL.
